What was measured:
ventricular fibrillation = assay: Defibrillation threshold (3-reversal up/down protocol) after electrically induced ventricular fibrillation in anesthetized pigs; type: in vivo
Source text: (§1) Six healthy pigs (30-35 kg) of either sex were anesthetized, monitored, and maintained under physiologic conditions. See, Chattipakorn et al. (2000). Two catheter-mounted platinum coated titanium coil electrodes were used as defibrillating electrodes. A 34-mm catheter was inserted into the right ventricular (RV) apex and served as the cathode for the first phase of the biphasic shock. […] The position of the catheters was verified with fluoroscopy. The blood pressure and heart rate were monitored continuously throughout the entire study.
Ventricular fibrillation was induced by 60-Hz alternating current delivered via an electrode at the tip of the RV catheter. After 10 seconds of ventricular fibrillation, defibrillation was attempted with 10-ms biphasic truncated exponential shocks. Delivered voltage and current were recorded on a waveform analyzer and total delivered energy was calculated. A minimum of 4 min was allowed to elapse between ventricular fibrillation episodes.
(§2) The defibrillation threshold was determined 4 times during 4 different conditions in this study. The defibrillation threshold in each group was determined using a 3-reversal up/down protocol. See Chattipakorn et al. The first defibrillation threshold was determined at the beginning of the study. This defibrillation threshold was used as a control defibrillation threshold (control-DFT). Then, Flunarizine, a delayed afterdepolarization inhibitor, was injected intravenously as a bolus (2 mg/kg) and maintenance (4 mg/kg/hr) dose. The second defibrillation threshold (drug-DFT) was determined 15 minutes after the application of Flunarizine. After the drug-DFT was obtained, the administration of Flunarizine was terminated while the blood pressure and heart rate were monitored. The third defibrillation threshold (washout-DFT) was determined again when the blood pressure returned to the control level which normally took 60 minutes after the termination of the drug.
Values are shown as mean standard deviation. Comparisons of data among different defibrillation threshold groups were performed using an analysis of variance. When statistical significance was found, individual differences were analyzed with a Fisher's post-hoc test. Differences were considered significant when P<0.05.

[1] = Systolic blood pressure monitored during the defibrillation threshold study; type: in vivo; conditions: pigs
Source text: as §1
as §2, with “Then, Flunarizine, a delayed afterdepolarization inhibitor, was injected intravenously as a bolus (2 mg/kg) and maintenance (4 mg/kg/hr) dose.” left out, “drug. […]” for “drug.”

Fc1ccc(C(c2ccc(F)cc2)N2CCN(C/C=C/c3ccccc3)CC2)cc1 [Flunarizine]
washout defibrillation threshold compared with control-DFT (ventricular fibrillation; after termination of drug, when blood pressure returned to control level (normally 60 minutes)): not significantly different from the control-DFT | reduction of the defibrillation threshold by energy (ventricular fibrillation; drug-DFT vs control-DFT): approximately 40% | reduction of the defibrillation threshold by leading edge voltage (ventricular fibrillation; drug-DFT vs control-DFT): approximately 22% | drug-DFT, delivered leading edge voltage (ventricular fibrillation; i.v. bolus 2 mg/kg + maintenance 4 mg/kg/hr, determined 15 minutes after application, 10-ms biphasic shocks, mean ± SD, control-DFT 623±120 volts): 485±82 volts | drug-DFT, total delivered energy (ventricular fibrillation; i.v. bolus 2 mg/kg + maintenance 4 mg/kg/hr, determined 15 minutes after application, mean ± SD, control-DFT 23±4 joules): 14±3 joules | systolic blood pressure ([1]; after i.v. injection (bolus 2 mg/kg + 4 mg/kg/hr), mean ± SD, control 102±11 mmHg): 76±10 mmHg | reduction of the systolic blood pressure ([1]; vs control): ~26%
